Where “and” joins values, the source holds several entries; their conditions need not be identical. Equal entries are not always repeated.
Legend:
HEK-Blue Null1 cells = assay: TLR- control cell line HEK-Blue Null1 (control for human TLR2); type: cell-based
Experimental: (§1) The secreted embryonic alkaline phosphatase (SEAP) reporter is under the control of a promoter inducible by the transcription factor NF-κB. This reporter gene allows the monitoring of signaling through the TLR, based on the activation of NF-κB. In a 96-well plate (200 µL total volume) containing the appropriate cells (50,000 - 75,000 cells/well), 20 µL of the test article or the positive control ligand (HKLC) is added to the wells. The media added to the wells is designed for the detection of NF-κB induced SEAP expression. After a 16-24-hour incubation the optical density (OD) is read at 650 nm on a Molecular Devices SpectraMax 340PC absorbance detector.

[1] = Stability IV: formulation pH during accelerated storage; type: physicochemical
Experimental: (§2) Each compound was formulated in 0.9% w/w saline with addition of 0.1% w/w EDTA at about pH 5. The formulations were stored in the dark under accelerated conditions (40° C./75% RH) and reference formulations were stored at -80° C. At days 0, 9 and 28, samples were analysed by UHPLC and pH was measured.
The remaining ~ 1 mL of solution in the clear glass HPLC vials was stored at 40° C./75% RH and was used to measure pH at each time point.
The formulation pH data recorded at each time point are compiled in Table 19. There was a general trend for the pH to increase with time but the effect was not pronounced.

human TLR2 = target: T1, human TLR2 (Homo sapiens, UniProt O60603); assay: Activation of human TLR2 II: HEK-BLUE-hTLR2 NF-kB/SEAP reporter assay; type: cell-based; conditions: for optical density (650 nm): screenings 1-3; for EC50 / activity at TLR2 (in words): HEK-BLUE-hTLR2 cells; for fold induction at 0.0001 µg/mL / fold induction at 0.00031 µg/mL / fold induction at 0.0005 µg/mL / fold induction at 0.002 µg/mL / fold induction at 0.0078 µg/mL / fold induction at 0.0313 µg/mL / fold induction at 0.125 µg/mL: HEK-Blue hTLR2, read-out: Fold induction (ratio of average induced value to average non-induced value)
T1 construct: expressed in transfected cells; host or cells: HEK-Blue hTLR2 cells
Experimental: The potency of the compounds as activators of human TLR-2s is tested in an in vitro assay in HEK-BLUE-hTLR2 cells.
HEK-BLUE-hTLR2 cells are designed for studying the stimulation of human TLR2 (hTLR2) by monitoring the activation of NF-kB. HEK-BLUE-hTLR2 cells are obtained by co-transfection of the hTLR2 and SEAP (secreted embryonic alkaline phosphatase) reporter genes into HEK293 cells. Stimulation with a TLR2 ligand activates NF-kB which induces the production of SEAP.
HEK-BLUE-hTLR2 cells were purchased from InvivoGen (San Diego, CA, USA). Cells were grown in DMEM supplemented with 10% FCS, 100 U/ml penicillin, 100 ug/ml streptomycin and 2 mM L-glutamine, 100 µg/mL Normocin in the presence of selection antibiotic purchased from InvivoGen and passaged when 70% confluence was reached per manufacturer’s recommendation.
i) A serial dilution of respective compounds were prepared in saline and added in […] of each dilution in triplicates per well in a flat bottom 96-well plate and placed in the incubator while waiting for the cells.
ii) Remove HEK-BLUE-hTLR2 cells in a T-75 flask from incubator and discard the growth media.
iii) Gently rinse the cells with prewarmed 10 ml of PBS
iv) Add 5 ml of prewarmed PBS and place the cells in 37° C. for 2 mins and then detach the cells by gently pipetting up and down the PBS on the surface where the cells adhere.
v) Cells suspension at the density of 280,000 cells/ml is prepared in HEK-Blue™ Detection medium which is purchased from InvivoGen and prepared according to the manufacturer’s instruction,
vi) Add immediately […] of the cell suspension per well of the plate which contains the solution of the compounds. […]

HEK-Blue Null2 cells = assay: TLR- control cell line HEK-Blue Null2 (control for mouse TLR2); type: cell-based
Experimental: as §1

[2] = Stability IV: accelerated storage stability over 28 days, UHPLC; type: physicochemical; conditions: 40° C./75% RH
Experimental: as §2
Approximately 1.5 mg of each compound was weighed into glass HPLC vials and 1.5 mL of saline/EDTA formulation adjusted to pH 5.0 was added. The vials were vortex mixed then warmed under running hot water until full dissolution was observed.
4 × 100 uL aliquots of each solution were transferred to Agilent polypropylene 200 µL HPLC vials for storage under accelerated and reference conditions (two aliquots at each condition). These vials were removed at each time point for HPLC analysis. The frozen reference solutions at Day 9 and Day 28 were gently warmed under running hot water followed by vortex mixing for ~ 10 sec and sonication for 10 min to encourage complete dissolution. […]
Compounds B4 and B12 were analysed according to Gradient 2: […]
UHPLC results were analysed in a similarly to that described in Example 8. […]
Percentage recovery of main peak area is calculated according to the following equation (1): […]

mouse TLR2 = target: T2, mouse TLR2 (Mus musculus, UniProt Q9QUN7); assay: HEK-Blue mTLR2 dose response (SEAP reporter); type: cell-based
T2 construct: expressed in transfected cells; host or cells: HEK-Blue mTLR2 cells
Experimental: Toll-Like Receptor (TLR) stimulation is tested by assessing NF-KB activation in the TLR expressing cell lines. HEK-Blue h/mTLR2 cells have been stably transfected with human or mouse TLR2 and CD14. The activity of the test articles are tested on human and mouse TLR2, as potential agonists. The test articles are evaluated at seven concentrations and compared to control ligands (see list below). These steps are performed in triplicate.
A 5 µg/mL working stock was then prepared for each compound from the 20 µg/mL dilution in sterile PBS. Starting from the 5 µg/mL working stock, a series of six 1:4 serial dilutions were made by mixing 100 µL of the previous highest dilution with 300 µL sterile PBS.
as §1

T1 sequence (O60603 21-784): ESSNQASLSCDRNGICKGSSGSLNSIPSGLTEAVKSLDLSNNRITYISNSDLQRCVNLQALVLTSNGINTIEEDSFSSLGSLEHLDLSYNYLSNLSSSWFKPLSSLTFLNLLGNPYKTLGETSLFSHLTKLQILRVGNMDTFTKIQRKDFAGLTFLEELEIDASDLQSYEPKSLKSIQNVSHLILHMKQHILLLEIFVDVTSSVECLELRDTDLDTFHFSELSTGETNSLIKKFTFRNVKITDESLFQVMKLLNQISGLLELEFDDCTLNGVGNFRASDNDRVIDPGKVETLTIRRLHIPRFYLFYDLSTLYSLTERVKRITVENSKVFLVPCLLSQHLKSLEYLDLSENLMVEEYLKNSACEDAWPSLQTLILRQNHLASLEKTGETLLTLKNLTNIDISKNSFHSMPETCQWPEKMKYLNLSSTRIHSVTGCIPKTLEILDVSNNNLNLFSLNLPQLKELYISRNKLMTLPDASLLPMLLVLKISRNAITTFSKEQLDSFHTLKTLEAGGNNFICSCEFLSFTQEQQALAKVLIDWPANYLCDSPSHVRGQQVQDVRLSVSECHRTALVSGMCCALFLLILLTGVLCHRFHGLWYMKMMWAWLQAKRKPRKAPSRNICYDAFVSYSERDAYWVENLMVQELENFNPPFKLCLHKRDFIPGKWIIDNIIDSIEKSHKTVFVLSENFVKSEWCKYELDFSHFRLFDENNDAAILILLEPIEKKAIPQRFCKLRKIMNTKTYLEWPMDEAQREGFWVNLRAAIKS
T1 sequence (Q9Y2C9 32-796 partner): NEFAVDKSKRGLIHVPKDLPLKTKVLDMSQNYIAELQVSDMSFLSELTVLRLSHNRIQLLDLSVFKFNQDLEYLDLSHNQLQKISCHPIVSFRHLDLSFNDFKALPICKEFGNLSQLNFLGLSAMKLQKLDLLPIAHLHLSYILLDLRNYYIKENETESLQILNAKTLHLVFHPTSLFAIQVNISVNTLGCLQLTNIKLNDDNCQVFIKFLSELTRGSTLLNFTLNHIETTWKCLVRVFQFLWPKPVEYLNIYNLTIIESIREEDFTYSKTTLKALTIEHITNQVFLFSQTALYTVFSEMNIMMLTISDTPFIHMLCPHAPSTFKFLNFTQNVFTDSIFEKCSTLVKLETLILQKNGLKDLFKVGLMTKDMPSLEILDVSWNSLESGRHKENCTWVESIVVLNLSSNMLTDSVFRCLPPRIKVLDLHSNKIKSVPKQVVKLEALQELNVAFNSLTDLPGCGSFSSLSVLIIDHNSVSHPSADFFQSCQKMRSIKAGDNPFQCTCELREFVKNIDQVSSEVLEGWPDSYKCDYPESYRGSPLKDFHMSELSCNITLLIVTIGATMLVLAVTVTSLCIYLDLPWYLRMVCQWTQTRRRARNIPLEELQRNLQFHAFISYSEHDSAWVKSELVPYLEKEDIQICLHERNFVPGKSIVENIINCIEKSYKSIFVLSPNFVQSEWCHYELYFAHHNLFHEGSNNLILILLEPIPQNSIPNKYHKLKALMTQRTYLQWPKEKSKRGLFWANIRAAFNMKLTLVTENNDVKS
T2 sequence (Q9QUN7 25-784): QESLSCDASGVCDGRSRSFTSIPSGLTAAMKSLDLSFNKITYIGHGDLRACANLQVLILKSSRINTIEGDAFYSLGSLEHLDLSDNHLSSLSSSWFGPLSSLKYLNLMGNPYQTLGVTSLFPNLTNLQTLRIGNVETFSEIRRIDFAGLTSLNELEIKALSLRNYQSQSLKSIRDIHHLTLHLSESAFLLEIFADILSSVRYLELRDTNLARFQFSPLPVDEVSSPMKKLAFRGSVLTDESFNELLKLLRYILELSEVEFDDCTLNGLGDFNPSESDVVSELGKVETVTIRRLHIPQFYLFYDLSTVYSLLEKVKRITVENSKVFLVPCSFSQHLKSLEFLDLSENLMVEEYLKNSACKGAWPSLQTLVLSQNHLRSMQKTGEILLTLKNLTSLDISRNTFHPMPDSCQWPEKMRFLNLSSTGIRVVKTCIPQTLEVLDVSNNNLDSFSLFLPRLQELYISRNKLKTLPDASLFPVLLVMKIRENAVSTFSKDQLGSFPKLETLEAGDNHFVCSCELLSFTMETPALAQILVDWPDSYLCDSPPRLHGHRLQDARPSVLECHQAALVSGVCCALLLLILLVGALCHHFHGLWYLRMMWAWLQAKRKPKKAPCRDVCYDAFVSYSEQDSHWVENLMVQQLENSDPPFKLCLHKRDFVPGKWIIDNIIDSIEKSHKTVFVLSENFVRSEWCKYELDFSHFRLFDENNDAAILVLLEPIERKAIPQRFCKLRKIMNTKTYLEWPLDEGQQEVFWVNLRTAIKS
T2 sequence (Q9Y2C9 32-796 partner): as the sequence (Q9Y2C9 32-796 partner) above

pH of formulation ([1]; 0-days) | pH of formulation ([1]; 9-days, 40° C./75% RH) | pH of formulation ([1]; 28-days, 40° C./75% RH) | optical density (650 nm) (human TLR2; 0.1 ng/mL) | optical density (650 nm) (human TLR2; 0.31 ng/mL) | optical density (650 nm) (human TLR2; 0.5 ng/mL) | optical density (650 nm) (human TLR2; 2.0 ng/mL) | optical density (650 nm) (human TLR2; 7.8 ng/mL) | optical density (650 nm) (human TLR2; 31.3 ng/mL) | optical density (650 nm) (human TLR2; 125 ng/mL) | EC50 (human TLR2) [nM] | activity at TLR2 (in words) (human TLR2) | fold induction at 0.0001 µg/mL (human TLR2; 0.1 ng/mL) | fold induction at 0.00031 µg/mL (human TLR2; 0.31 ng/mL) | fold induction at 0.0005 µg/mL (human TLR2; 0.5 ng/mL) | fold induction at 0.002 µg/mL (human TLR2; 2.0 ng/mL) | fold induction at 0.0078 µg/mL (human TLR2; 7.8 ng/mL) | fold induction at 0.0313 µg/mL (human TLR2; 31.3 ng/mL) | fold induction at 0.125 µg/mL (human TLR2; 125 ng/mL) | SMILES | stimulatory response in HEK-Blue Null1 (human) cells (in words) (HEK-Blue Null1 cells) | further results
5.6 | 5.7 | 5.7 | 0.182 and 0.206 and 0.197 | 0.126 and 0.115 | 0.719 and 0.594 and 0.617 | 1.660 and 1.529 and 1.498 | 2.214 and 2.163 | 2.438 and 2.327 and 2.350 | 2.451 and 2.411 and 2.467 | 0.605 | significant activity | 1.9 | 1.2 | 6.2 | 15.2 | 21.3 | 23 | 23.7 | CCCCCCCCCCCCCCC(C)C(=O)OC[C@H](CSC[C@H](N)C(=O)N[C@@H](CO)C(=O)NCCOCCOCCOCCOCCOCCOCCOCCOCCOCCOCCOCCOCCOCCOCCOCCOCCOCCOCCOCCOCCOCCOCCOCCOCCOCCOCCOCCOCCC(=O)NCC(N)=O)OC(=O)C(C)CCCCCCCCCCCCCC (stereo partly shown) [Compound B4] | not observed | stimulatory response in HEK-Blue Null2 (mouse) cells (in words) (HEK-Blue Null2 cells): not observed; storage stability under accelerated conditions (in words) [2]: most stable compounds; stimulatory / agonist activity for mTLR2 (in words) (mouse TLR2): stimulatory activity
5.6 | 5.7 | 5.7 | 0.239 and 0.202 and 0.208 | 0.116 and 0.132 and 0.137 | 0.585 and 0.558 and 0.559 | 1.429 and 1.308 and 1.638 | 2.187 and 2.257 and 2.302 | 2.422 and 2.423 and 2.449 | 2.409 and 2.564 and 2.615 | 0.74 | significant activity | 2.2 | 1.3 | 5.8 | 15 | 23.2 | 25.1 | 26.1 | CCCCCCCCCCCCCCC(C)C(=O)OCC[C@H](CSC[C@H](N)C(=O)N[C@@H](CO)C(=O)NCCOCCOCCOCCOCCOCCOCCOCCOCCOCCOCCOCCOCCOCCOCCOCCOCCOCCOCCOCCOCCOCCOCCOCCOCCOCCOCCOCCOCCC(=O)NCC(N)=O)OC(=O)C(C)CCCCCCCCCCCCCC (stereo partly shown) [Compound B12] | not observed | stimulatory response in HEK-Blue Null2 (mouse) cells (in words) (HEK-Blue Null2 cells): not observed; storage stability under accelerated conditions (in words) [2]: most stable compounds; stimulatory / agonist activity for mTLR2 (in words) (mouse TLR2): stimulatory activity
